# Source: paper PMC3551771, “Pharmacological modulation of histone demethylase activity by a small molecule isolated from subcritical water extracts of Sasa senanensis leaves prolongs the lifespan of Drosophila melanogaster” (BMC Complementary and Alternative Medicine, 2012)
# How the values were obtained:
# Experiment in all cases: fluorogenic JMJD demethylase assay kit, biotinylated histone H3 peptide substrate
# Type in all cases: biochemical
# [1] = molecular target: T1, JMJD2A (Homo sapiens, UniProt O75164)
# T1 construct: gene KDM4A
# T1 sequence (O75164 2-1064): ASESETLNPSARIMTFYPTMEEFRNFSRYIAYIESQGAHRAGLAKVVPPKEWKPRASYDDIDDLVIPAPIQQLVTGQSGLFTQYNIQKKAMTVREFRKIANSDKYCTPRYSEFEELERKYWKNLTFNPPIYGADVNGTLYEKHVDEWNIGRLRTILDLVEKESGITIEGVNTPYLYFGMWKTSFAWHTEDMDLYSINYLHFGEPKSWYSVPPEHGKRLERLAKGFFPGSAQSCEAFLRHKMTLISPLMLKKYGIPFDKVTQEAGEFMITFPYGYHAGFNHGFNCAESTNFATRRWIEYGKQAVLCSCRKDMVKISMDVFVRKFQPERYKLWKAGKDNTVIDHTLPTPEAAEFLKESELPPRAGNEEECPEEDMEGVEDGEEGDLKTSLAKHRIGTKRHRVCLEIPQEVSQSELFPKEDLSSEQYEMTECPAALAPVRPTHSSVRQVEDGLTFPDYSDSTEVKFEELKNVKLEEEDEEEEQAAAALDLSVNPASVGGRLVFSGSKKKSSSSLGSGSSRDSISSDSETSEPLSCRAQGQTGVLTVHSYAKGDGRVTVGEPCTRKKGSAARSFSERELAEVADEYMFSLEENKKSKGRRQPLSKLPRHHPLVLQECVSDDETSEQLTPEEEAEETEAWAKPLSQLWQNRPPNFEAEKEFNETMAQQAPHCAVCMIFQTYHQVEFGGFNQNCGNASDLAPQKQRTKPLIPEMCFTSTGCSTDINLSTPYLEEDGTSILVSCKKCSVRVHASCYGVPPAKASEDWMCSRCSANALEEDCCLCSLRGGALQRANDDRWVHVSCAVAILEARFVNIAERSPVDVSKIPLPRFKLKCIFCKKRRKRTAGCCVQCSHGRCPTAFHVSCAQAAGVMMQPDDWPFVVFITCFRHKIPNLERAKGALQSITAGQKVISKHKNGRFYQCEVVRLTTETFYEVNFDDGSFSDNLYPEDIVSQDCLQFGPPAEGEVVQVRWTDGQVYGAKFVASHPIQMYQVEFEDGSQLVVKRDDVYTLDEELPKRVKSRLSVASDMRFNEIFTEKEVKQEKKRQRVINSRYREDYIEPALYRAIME
# [2] = molecular target: T2, JMJD2B (Homo sapiens, UniProt O94953)
# T2 construct: gene KDM4B
# T2 sequence (O94953 1-1096): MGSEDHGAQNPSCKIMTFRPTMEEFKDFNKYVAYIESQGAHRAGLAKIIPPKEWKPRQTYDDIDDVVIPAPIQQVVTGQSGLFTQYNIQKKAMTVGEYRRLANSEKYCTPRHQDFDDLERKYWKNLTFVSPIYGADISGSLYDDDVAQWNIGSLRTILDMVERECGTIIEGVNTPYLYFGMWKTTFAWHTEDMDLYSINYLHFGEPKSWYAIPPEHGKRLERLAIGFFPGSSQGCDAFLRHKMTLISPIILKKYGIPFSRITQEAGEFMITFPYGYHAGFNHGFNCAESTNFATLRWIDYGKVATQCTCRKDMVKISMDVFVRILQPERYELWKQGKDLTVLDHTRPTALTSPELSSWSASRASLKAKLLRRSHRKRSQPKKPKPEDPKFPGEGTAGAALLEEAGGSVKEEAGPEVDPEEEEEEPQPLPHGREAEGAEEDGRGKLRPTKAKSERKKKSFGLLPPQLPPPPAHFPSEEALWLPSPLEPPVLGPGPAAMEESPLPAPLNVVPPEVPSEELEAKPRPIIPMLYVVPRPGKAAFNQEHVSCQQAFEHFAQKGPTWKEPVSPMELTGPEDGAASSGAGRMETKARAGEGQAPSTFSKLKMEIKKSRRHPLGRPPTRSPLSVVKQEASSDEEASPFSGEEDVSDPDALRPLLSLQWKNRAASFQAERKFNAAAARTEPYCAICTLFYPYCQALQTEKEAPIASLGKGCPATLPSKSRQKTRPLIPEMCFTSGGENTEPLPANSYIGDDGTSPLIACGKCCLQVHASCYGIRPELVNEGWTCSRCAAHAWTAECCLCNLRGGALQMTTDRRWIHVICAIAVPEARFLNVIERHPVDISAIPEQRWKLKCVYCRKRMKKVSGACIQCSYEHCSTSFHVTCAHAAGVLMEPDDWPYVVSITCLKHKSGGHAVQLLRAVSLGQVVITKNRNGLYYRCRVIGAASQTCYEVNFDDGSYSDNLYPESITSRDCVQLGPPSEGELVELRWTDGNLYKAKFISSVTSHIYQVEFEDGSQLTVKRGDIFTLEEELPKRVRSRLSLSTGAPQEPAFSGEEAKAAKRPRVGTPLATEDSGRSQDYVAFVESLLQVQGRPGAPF
# Description: IC50 values are mean ± SEM
# [3] = molecular target: T3, JMJD2C (Homo sapiens, UniProt Q9H3R0)
# T3 construct: gene KDM4C
# T3 sequence (Q9H3R0 1-1056): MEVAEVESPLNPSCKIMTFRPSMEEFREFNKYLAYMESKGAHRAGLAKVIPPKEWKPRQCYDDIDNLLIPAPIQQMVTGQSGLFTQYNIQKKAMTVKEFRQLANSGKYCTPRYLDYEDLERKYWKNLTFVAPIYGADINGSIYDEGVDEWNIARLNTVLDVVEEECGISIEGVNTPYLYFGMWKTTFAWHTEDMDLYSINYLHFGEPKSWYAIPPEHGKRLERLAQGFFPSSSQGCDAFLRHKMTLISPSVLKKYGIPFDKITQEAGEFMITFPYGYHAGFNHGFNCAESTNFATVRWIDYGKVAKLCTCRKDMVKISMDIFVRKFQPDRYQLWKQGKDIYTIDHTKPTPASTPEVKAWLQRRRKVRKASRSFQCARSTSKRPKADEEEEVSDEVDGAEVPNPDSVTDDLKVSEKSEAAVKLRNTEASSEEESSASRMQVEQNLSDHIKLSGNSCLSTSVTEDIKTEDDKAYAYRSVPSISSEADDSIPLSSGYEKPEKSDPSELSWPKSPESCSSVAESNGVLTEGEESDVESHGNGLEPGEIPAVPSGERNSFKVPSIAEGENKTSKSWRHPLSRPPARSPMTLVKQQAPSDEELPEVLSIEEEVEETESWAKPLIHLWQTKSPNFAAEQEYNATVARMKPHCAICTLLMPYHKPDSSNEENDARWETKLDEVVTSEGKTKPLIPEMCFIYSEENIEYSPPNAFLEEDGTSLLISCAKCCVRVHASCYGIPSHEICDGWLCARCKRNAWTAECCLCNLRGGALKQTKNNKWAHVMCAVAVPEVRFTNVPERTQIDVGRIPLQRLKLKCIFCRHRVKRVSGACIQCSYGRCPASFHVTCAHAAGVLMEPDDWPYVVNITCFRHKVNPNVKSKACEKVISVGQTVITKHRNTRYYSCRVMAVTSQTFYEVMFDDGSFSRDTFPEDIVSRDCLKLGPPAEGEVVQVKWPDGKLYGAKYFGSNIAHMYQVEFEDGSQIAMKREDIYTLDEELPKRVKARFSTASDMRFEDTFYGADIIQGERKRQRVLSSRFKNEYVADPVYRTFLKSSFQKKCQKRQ
smiles,measurement,setting,value
"O=Cc1ccc(O)c(O)c1 [PA, 3,4-dihydroxybenzaldehyde]",IC50,[1],11.6 ± 1.5 µM
same,IC50,[2],38.6 ± 10 µM
same,IC50,[3],33.7 ± 7.8 µM
